The record followed here is US12616681B2, “Compositions and methods for treating renal injury” (priority 2019, dated 2026).

The test system of assay [1] is endogenous PGE2 levels in kidney tissue. The experiment in a line: Renal PGE2 levels after intraperitoneal injection in mice (Example 1). It counts as in vivo. On the procedure: […] Protein concentrations of supernatant were determined by BCA assay (ThermoFisher Scientific, Rockford, IL). The PGE2 level was measured using a PGE2 ELISA kit (R&D Systems, Minneapolis, MN) in triplicate. PGE2 levels were expressed as nanograms of PGE2 per milligram of protein. Renal function was assessed by determining the serum levels of blood urea nitrogen (BUN; Abcam), serum creatinine (Agilent 6410 LC-MS/MS, Agilent, Santa Clara, CA), lipocalin-2 (R&D Systems), and kidney injury molecule-1 (KIM-1; R&D Systems) after reperfusion for 24 h. Measurement of serum creatinine was by HPLC. Serum creatinine was assessed using an Agilent 6410 LC-MS/MS system coupled with an Agilent 1200 series HPLC system (Agilent). The sample preparation for serum creatinine was that 50 μL of serum samples were mixed with 100 μL of acetonitrile that contained creatinine-d3 as an internal standard (5 μg/mL). The mixture was centrifuged at 13,000 rpm for 10 min after vigorous vortex, and 1 μL of supernatant was then injected into the LC-MS/MS system. The chromatography separation was performed on a Hypersil GOLD C18 column (150×2.1 mm, 3 m, Thermo Scientific) using a mobile phase of 0.1% formic acid solution and acetonitrile [70:30 (vol/vol)]. The flow rate was 0.2 mL/min. […] The multiple-reaction monitoring mode using specific precursor/production transition was used for quantification. […]

For assay [2], the system named is mice with ischemic AKI (bilateral renal IRI). The experiment in a line: Renal IRI model: renal vasodilation and renal Doppler flux (RBF). It counts as in vivo, C57/BL6 mice. Here is the method:
The inner arteriolar area of the outer medulla was determined using α-smooth muscle actin (α-SMA)-stained sections. Kidneys were removed without perfusion under inhalational isoflurane anesthesia, divided into three pieces horizontally, immediately fixed in 10% formalin, and then embedded in paraffin. The inner area of α-SMA-positive vessels in the outer medulla was measured using ImageJ. The results are expressed as average areas of renal arteries in the outer medulla. As a surrogate for RBF, we used noninvasive laser Doppler flowmetry (periflux system 5000, Perimed) to measure flux, placing laser-Doppler probes at a fixed position on the kidney surface and recording renal cortical measurements. […] The relative increase represents the percent increase in RDF from baseline to peak for each test.

In assay [3] the test system is human renal proximal tubular epithelial cells (hRPTECs). The assay can be described thus: hRPTEC apoptosis by flow cytometry with iodixanol. It counts as cell-based. The settings on record: drug with iodixanol 50 mgI/mL, 24 h. Here is the method: Human renal proximal tubular epithelial cells (hRPTECs) were purchased from the American Type Culture Collection (#PCS-400-010TM, Manassas, VA, USA). These cells were grown in 75 cm^2 flasks in Renal Epithelial Cell Basal Medium (PCS-400-030TM, ATCCVR) supplemented with Renal Epithelial Cell Growth Kit (PCS-400-040TM, ATCCVR).
After the treatment described in the section above, the hRPTECs were pelleted by centrifugation at 1800 rpm for 10 min and incubated with annexin V fluorescein isothiocyanate and propidium iodide using an Apoptosis Detection Kit I (#556547, BD Biosciences, San Jose, CA, USA) according to the manufacture's instruction. Then quantification was conducted using a FACSC flow cytometer with Cell Quest software (BD Biosciences).

Assay [4] concerns contrast-induced acute kidney injury (CIAKI) mice. The assay can be described thus: CIAKI mouse model: renal vasodilation in the outer medulla. The class given is in vivo, C57/BL6 mice. Particulars: CM + drug, 48 h after CM. On the procedure: 48 h after CM injection, kidney tissues were harvested, fixed in 4% phosphate-buffered formalin, and embedded in paraffin. To quantify vasodilation, the inner arteriole area of the outer medulla was determined using α-SMA-stained sections. They were incubated for 1 h with an α-SMA antibody. 3,30-diamino-benzidine (0.7 g/tablet; Sigma-Aldrich) was added, followed by washing three times with PBS for 1 min each. After counterstaining with Mayer's hematoxylin, the inner areas of α-SMA-positive vessels in the outer medulla (25× magnification) were measured using ImageJ software. The results were expressed as the average area of all of the renal arteries in each outer medulla section.

Assay [5] shares this test system. The assay can be described thus: CIAKI mouse model: renal blood flow (laser Doppler flux). It counts as in vivo, C57/BL6 mice. Particulars: CM + drug, 48 h after CM. Here is the method: Total RBF was assessed by measuring renal Doppler flux using noninvasive laser Doppler flowmetry (PeriFlux System 5000, Perimed AB, Sweden). Laser Doppler probes were placed on the kidney surface to measure the renal flux. The flux was measured 48 h after CM administration. The relative increase represented the percentage increase in renal blood flow from baseline to peak for each test. Statistical significance was set as p<0.05.

Assay [6] shares this test system. The assay can be described thus: CIAKI mouse model: AMP and adenosine levels in renal tissue. The class given is in vivo, C57/BL6 mice. Particulars: CIAKI mice, CM + drug, 48 h after CM. Here is the method:
48 h after CM administration, serum and kidney tissues were harvested. The adenosine levels in the serum and kidney tissues were measured using high-performance liquid chromatography.

Take `CCCC[S+]([O-])c1sc2nc(-c3cccs3)cc(-c3ccccc3)c2c1N` (centres unmarked) [SW033291]: the “endogenous renal PGE2 (peak)” value in assay [1] (1 h after intraperitoneal 5 mg/kg) is reported as “tripling”. Further, in assay [1] (3 h after intraperitoneal injection of 2.5 or 5 mg/kg), the “renal PGE2” value is “dose-dependent increase”. Besides, the “RDF-inferred RBF” value in assay [2] (24 h following IRI) is recorded as “completely preserved”. Also, the “renal arteriolar area in the outer medulla” value in assay [2] (24 h post-IRI, vs post-IRI vehicle and sham mice) is on record as “significantly increased”. The “protection from reduction of RDF-inferred RBF” value in assay [2] (single dose 1 h before IRI (Pre) vs Pre+Post) is “somewhat less protection”. In addition, the “RDF-inferred RBF” value in assay [2] (within 1 h after the first injection, just before AKI) is “increased inferred RBF above baseline”. Moreover, in assay [3], the “apoptosis rate of hRPTECs” value worked out at 10.06±0.85%. In assay [4], the “average renal arteriole area in the outer medulla” value amounted to 1132.97±159.86 μm^2. Moreover, the “RBF (renal Doppler flux)” value in assay [5] stood at 635.2±11.10. Besides, in assay [6], the “AMP in renal tissue” value is 15.60 ± 1.26 ng/mL and the “adenosine in renal tissue” value amounted to 2.65 ± 0.15 ng/mL.
